{"source": "patent US5541217A", "about": "“4-arylcyclopenta[c]pyrrole analgesics” (Ortho Pharmaceutical Corporation, priority 1995, dated 1996)", "data": [{"tested_on": "acetylcholine-bromide induced abdominal constriction response", "experiment": "Mouse Acetylcholine Bromide-Induced Abdominal Constriction Assay", "format": "in vivo", "conditions": "po, 30 min before i.p. 5.5 mg/kg acetylcholine bromide, 10 min observation", "units": {"% Inhibition at 30 mg/kg": "%"}, "values": [{"smiles": "CN1C[C@H]2CC[C@](O)(c3ccccc3)[C@H]2C1", "note": "(relative stereo) [Cp-1]", "% Inhibition at 30 mg/kg": 87}, {"smiles": "CN1C[C@H]2CC[C@](O)(c3ccc(F)cc3)[C@H]2C1", "note": "(relative stereo) [Cp-2]", "% Inhibition at 30 mg/kg": 87}, {"smiles": "CN1C[C@H]2CC[C@](O)(c3cccc(C(F)(F)F)c3)[C@H]2C1", "note": "(relative stereo) [Cp-3]", "% Inhibition at 30 mg/kg": 87}, {"smiles": "CN1C[C@H]2CC[C@@H](c3ccc(F)cc3)[C@H]2C1", "note": "(relative stereo) [Cp-5]", "% Inhibition at 30 mg/kg": 87}]}, {"tested_on": "acetylcholine-bromide induced abdominal constriction response", "experiment": "Mouse Acetylcholine Bromide-Induced Abdominal Constriction Assay", "format": "in vivo", "conditions": "sc, 30 min before i.p. 5.5 mg/kg acetylcholine bromide, 10 min observation", "units": {"% Inhibition at 30 mg/kg": "%"}, "values": [{"smiles": "CN1C[C@H]2CC[C@@H](c3ccccc3)[C@H]2C1", "note": "(relative stereo) [Cp-4]", "% Inhibition at 30 mg/kg": 100}, {"smiles": "CN1C[C@H]2CC[C@@H](c3cccc(C(F)(F)F)c3)[C@H]2C1", "note": "(relative stereo) [Cp-6]", "% Inhibition at 30 mg/kg": 87}, {"smiles": "CN1C[C@H]2CC[C@H](c3ccccc3)[C@H]2C1", "note": "(relative stereo) [Cp-7]", "% Inhibition at 30 mg/kg": 100}]}]}
